According to ChEMBL document CHEMBL1681705, “Optimisation of ITK inhibitors through successive iterative design cycles” (Bioorg Med Chem Lett, 2011):

Key:
[1] = molecular target: Tyrosine-protein kinase Yes (Homo sapiens) (UniProt P07947); assay: Inhibition of Yes at 0.1 uM; values are per cent of control
[2] = molecular target: RAC-alpha serine/threonine-protein kinase (Homo sapiens) (UniProt P31749); assay: Inhibition of PKBalpha at 0.1 uM; values are per cent of control
[3] = molecular target: T1, Aurora kinase A (Homo sapiens) (UniProt O14965); assay: Inhibition of aurora-A at 1 uM; values are per cent of control
T1 sequence (whole entry): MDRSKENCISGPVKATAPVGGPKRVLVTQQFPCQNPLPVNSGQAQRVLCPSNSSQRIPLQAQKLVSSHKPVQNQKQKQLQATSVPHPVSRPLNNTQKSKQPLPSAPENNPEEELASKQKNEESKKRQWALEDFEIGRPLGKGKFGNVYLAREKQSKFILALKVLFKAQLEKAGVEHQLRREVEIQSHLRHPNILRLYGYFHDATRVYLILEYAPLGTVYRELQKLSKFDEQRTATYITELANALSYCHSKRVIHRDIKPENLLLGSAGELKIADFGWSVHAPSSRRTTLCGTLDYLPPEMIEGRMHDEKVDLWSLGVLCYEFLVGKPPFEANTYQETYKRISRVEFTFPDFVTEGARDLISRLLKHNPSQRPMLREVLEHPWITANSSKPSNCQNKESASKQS

[4] = molecular target: T2, Serine/threonine-protein kinase D2 (Homo sapiens) (UniProt Q9BZL6); assay: Inhibition of PKD2 at 0.1 uM; values are per cent of control
T2 sequence (whole entry): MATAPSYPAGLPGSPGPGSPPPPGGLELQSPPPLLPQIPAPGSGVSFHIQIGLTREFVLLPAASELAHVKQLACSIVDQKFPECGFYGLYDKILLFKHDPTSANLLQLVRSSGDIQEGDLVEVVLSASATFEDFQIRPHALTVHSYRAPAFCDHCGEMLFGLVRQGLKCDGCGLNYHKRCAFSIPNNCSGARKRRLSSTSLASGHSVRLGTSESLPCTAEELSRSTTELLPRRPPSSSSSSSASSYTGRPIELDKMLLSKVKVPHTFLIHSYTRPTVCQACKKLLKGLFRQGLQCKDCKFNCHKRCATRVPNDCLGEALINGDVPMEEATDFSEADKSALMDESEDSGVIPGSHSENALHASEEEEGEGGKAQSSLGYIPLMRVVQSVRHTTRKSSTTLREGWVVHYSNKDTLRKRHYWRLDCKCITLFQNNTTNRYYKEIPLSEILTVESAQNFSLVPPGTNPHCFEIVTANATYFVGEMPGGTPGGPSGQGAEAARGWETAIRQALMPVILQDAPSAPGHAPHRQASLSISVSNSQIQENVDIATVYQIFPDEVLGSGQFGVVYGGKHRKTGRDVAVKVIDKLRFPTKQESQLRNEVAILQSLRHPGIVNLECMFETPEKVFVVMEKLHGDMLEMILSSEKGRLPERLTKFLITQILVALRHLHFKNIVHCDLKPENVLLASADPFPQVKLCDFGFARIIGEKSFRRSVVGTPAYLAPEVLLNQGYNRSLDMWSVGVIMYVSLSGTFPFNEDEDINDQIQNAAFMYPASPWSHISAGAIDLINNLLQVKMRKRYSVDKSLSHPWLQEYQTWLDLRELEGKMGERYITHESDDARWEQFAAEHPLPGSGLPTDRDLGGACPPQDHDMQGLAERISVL

[5] = Inhibition of ROCK1 at 1 uM
[6] = molecular target: MAP kinase-interacting serine/threonine-protein kinase 2 (Homo sapiens) (UniProt Q9HBH9); assay: Inhibition of Mnk2 at 0.1 uM; values are per cent of control
[7] = molecular target: Serine/threonine-protein kinase PAK 2 (Homo sapiens) (UniProt Q13177); assay: Inhibition of PAK2 at 0.1 uM; values are per cent of control
[8] = molecular target: T3, Ephrin type-A receptor 3 (Homo sapiens) (UniProt P29320); assay: Inhibition of EphA3 at 0.1 uM; values are per cent of control
T3 sequence (whole entry): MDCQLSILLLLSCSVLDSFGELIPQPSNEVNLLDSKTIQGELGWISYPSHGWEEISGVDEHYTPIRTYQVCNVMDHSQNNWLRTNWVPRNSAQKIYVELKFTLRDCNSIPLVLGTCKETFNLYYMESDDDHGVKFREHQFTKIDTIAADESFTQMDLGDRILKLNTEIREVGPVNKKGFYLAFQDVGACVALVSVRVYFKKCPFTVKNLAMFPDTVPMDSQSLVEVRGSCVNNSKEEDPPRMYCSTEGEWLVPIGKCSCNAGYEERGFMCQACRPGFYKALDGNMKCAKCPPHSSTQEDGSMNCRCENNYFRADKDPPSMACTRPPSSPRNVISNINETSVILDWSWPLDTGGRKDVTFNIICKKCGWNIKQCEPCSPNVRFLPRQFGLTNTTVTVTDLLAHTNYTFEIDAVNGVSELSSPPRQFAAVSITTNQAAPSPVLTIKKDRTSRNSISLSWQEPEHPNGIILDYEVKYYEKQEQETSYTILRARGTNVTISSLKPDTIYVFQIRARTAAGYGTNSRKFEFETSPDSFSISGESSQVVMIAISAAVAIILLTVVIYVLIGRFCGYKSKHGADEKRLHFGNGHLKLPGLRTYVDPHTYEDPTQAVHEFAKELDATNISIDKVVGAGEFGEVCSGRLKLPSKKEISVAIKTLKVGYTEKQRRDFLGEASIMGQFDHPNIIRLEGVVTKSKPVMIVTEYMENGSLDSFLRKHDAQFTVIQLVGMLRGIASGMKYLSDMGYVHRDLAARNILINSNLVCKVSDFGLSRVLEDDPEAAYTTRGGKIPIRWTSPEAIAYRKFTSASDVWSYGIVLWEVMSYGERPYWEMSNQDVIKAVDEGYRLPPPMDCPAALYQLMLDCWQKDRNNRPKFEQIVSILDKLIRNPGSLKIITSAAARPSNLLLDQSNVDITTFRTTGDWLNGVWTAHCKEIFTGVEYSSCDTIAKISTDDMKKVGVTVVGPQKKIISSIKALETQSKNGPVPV

Mus musculus [9] = assay: Antiinflammatory activity in iv dosed BALB/c mouse assessed as inhibition of monoclonal anti-CD3-induced IL-2 production administered 10 min before monoclonal anti-CD3 challenge measured after 2 hrs by ELISA
[10] = Solubility of the compound; format: physicochemical
Mus musculus [11] = assay: Antiinflammatory activity in BALB/c mouse assessed as inhibition of monoclonal anti-CD3-induced IL-2 production at 10 mg/kg, iv administered 10 min before monoclonal anti-CD3 challenge measured after 2 hrs by ELISA; conditions: BLD = below limit of detection

Chain of RAC-alpha serine/threonine-protein kinase (Homo sapiens) (P31749 whole entry): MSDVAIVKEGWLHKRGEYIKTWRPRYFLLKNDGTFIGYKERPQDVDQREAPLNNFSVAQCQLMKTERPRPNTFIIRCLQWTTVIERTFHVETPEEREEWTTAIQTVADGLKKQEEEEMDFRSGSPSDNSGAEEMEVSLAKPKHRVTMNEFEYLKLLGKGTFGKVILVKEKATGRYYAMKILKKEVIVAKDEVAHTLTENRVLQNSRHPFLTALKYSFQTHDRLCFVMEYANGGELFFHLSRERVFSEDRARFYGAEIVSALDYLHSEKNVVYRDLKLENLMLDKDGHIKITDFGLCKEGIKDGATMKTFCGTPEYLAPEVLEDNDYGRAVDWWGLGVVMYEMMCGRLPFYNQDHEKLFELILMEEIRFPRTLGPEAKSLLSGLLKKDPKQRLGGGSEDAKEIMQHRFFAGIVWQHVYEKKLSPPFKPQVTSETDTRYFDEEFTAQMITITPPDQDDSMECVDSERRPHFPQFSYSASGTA
Chain of MAP kinase-interacting serine/threonine-protein kinase 2 (Homo sapiens) (Q9HBH9 whole entry, looked up): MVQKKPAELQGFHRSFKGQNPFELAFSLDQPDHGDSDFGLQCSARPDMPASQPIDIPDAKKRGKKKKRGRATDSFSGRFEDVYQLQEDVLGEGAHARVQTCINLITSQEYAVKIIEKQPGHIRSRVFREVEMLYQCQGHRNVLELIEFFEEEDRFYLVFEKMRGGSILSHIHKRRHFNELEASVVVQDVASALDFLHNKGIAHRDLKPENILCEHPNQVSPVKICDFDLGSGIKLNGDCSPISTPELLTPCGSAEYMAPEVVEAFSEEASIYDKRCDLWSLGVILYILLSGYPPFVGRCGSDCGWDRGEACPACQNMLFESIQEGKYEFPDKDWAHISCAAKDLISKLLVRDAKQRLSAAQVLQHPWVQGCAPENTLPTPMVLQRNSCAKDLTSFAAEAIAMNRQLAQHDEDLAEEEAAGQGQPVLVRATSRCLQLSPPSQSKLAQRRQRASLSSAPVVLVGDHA
Chain of Tyrosine-protein kinase Yes (Homo sapiens) (P07947 2-543 limits assumed): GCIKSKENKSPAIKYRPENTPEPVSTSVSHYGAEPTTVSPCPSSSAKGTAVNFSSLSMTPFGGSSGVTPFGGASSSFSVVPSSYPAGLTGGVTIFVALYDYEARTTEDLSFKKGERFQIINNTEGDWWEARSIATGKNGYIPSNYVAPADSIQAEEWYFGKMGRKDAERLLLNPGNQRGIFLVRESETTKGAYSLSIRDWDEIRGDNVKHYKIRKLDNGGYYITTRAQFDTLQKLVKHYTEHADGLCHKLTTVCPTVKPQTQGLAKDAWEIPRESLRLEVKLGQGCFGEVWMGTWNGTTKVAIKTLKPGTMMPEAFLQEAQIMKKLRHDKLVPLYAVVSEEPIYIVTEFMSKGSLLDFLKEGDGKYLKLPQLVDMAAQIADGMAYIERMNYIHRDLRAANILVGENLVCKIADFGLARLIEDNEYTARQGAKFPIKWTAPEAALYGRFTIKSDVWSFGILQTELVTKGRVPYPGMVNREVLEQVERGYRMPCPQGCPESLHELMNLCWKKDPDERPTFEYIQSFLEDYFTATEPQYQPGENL
Chain of Serine/threonine-protein kinase PAK 2 (Homo sapiens) (Q13177 whole entry): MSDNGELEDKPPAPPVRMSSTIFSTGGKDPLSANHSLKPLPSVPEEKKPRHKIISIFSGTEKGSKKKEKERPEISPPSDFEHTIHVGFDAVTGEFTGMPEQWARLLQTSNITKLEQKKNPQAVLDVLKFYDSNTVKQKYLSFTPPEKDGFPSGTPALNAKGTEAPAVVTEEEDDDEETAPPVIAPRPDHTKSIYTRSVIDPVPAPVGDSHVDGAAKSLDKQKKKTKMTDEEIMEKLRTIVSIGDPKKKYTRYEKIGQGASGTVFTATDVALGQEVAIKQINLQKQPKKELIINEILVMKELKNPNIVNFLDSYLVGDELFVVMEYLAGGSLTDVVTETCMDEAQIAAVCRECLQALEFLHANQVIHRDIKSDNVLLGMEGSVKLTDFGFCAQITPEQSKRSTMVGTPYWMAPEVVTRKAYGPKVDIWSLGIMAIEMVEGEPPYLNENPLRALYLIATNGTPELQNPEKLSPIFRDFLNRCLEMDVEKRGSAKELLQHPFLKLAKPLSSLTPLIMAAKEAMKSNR

| residual activity [1] [%] | residual activity [2] [%] | residual activity [3] [%] | residual activity [4] [%] | inhibition [5] [%] | residual activity [6] [%] | residual activity [7] [%] | residual activity [8] [%] | solubility [10] | Compound | ED50 (Mus musculus [9]) [mg/kg] | inhibition (Mus musculus [9]) | inhibition (Mus musculus [11]) |
| --- | --- | --- | --- | --- | --- | --- | --- | --- | --- | --- | --- | --- |
| -2 | 96 | -7 | 93 | 45 | 101 | 93 | 81 |  | Cc1ccc2cc(-c3n[nH]c4ccc(NC5CCN(Cc6ccccc6)CC5)cc34)[nH]c2c1 |  |  |  |
| 2 | 95 | 0 | 41 |  | 52 |  | 89 | soluble | Cc1ccc2cc(-c3n[nH]c4ccc(NC5CCNC5)cc34)[nH]c2c1 (stereo not drawn) | 2.1 | Dose-dependent effect | BLD |
